From patent publication US20140322296A1, “PIPERAQUINE MICROCAPSULES AND COMPOSITIONS CONTAINING THEM” (Aptalis Pharma S.r.l., priority 2013, published 2014)

Assay: Compatibility of piperaquine with the coacervation process (heating/cooling thermal cycles)
Assay type: physicochemical
Method: 1. Methods for Characterization • Particle size distribution (PSD): an amount of microcapsules in the range of 25-50 g of microcapsules is poured into a 100 mL HDPE bottle, 0.2% (w/w) of Syloid 244 (colloidal silicon dioxide, WR Grace, Columbia, Md.) and manually blended for 2 minutes; the mixture of microcapsules and Syloid 244 is sieved then with a digital Octagon apparatus for 10 minutes at amplitude 7. • Bulk density and tapped density of powders is measured according to Method USP 34 <616>. • Dissolution profile: Ph Eur [2.9.3]; apparatus n^o 2; dissolution medium: gastric simulated fluid pH 1.2 0.5% of Tween 80 without pepsin; dissolution medium volume: 900 mL; • dissolution medium temperature: 37±0.5° C.; withdrawal at: 5, 15, 30, 60 and 120 min. • Water content: Karl Fischer titration: Ph. Eur. 2.5.12 Method; following sample titration conditions are applied: sample solvent: methanol:formamide 1:1; sample weight: 50 mg; the value of water content in a sample is expressed as % w/w. • Residual cyclohexane: gas-chromatography (head space analysis). • Photostability Testing: ICH conditions “Q1B: Photostability (Option 1)”. • X-Ray Powder Diffraction (XRPD) measurements are performed on a Philips X'Pert PRO diffractometer (Bragg-Brentano geometry). • IR identity. A compatibility study is carried out on piperaquine to assess the compatibility of the drug with the coacervation process. In particular, piperaquine undergoes heating/cooling cycles mimicking thermal excursions of the process. Then, the following tests are performed both before and after thermal cycles to ascertain the stability of piperaquine: water content analysis (Karl Fisher test); effect of mechanical stress; crystalline structure by XRPD.

Assay (%) (PQP•4H2O) (after thermal cycle): 99.9% | Water content (%) (after thermal cycle): 8.5% | Assay (%) (PQP•4H2O) (before thermal cycle): 99.9% | Water content (%) (before thermal cycle): 8.9% | Effect of heating/cooling cycle on the drug (thermal excursions mimicking the coacervation process): not affected by heating/cooling cycle
SMILES: Clc1ccc2c(N3CCN(CCCN4CCN(c5ccnc6cc(Cl)ccc56)CC4)CC3)ccnc2c1 [PQP•4H2O, 4,4′-(1,3-propanediyldi-4,1-piperazinediyl)bis(7-chloroquinoline)phosphate hydrate (1:4:4)]
